Laboratory results taken from publication PMC6697583 (Cancer research, 2019).

Target: T1, heme oxygenase 1 (HO-1) (Homo sapiens, UniProt P09601)
T1 sequence (P09601 1-288): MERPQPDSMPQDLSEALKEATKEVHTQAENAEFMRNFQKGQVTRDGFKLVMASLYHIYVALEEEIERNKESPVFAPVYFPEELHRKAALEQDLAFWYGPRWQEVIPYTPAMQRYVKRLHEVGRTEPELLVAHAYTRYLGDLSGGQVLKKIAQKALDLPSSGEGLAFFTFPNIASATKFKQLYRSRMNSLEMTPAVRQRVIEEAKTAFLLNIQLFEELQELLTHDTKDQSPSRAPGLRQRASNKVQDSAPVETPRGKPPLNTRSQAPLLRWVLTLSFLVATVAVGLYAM
Test: bilirubin fluorescence assay on purified HO-1
Format: biochemical

IC50: 17.6 nM
SMILES: Cc1c(O)ccc2c1OC[C@@H](c1ccc(O)cc1)[C@H]2c1ccc(O)cc1 [ME-344, (3R,4S)-3,4-bis(4-hydroxyphenyl)-8-methyl-3,4-dihydro-2H-chromen-7-ol]
